Assay results reported in patent US20150239889A1, “PYRAZOLOPYRIMIDINE COMPOUND” (MITSUBISHI TANABE PHARMA CORPORATION, priority 2012, published 2015).

Key:
human HIF-PHD2 = target: T1, human HIF-PHD2 (Homo sapiens, UniProt Q9GZT9); test: HIF-PHD inhibition assay (fluorescence polarization), human HIF-PHD2; assay type: biochemical; details: 2-oxoglutaric acid 3.33 μmol/L
T1 construct: purchased CrystalGenomics Ltd
Outline: (§1)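 Compounds tested for enzyme inhibition by fluorescence polarization. Subtracting the reading taken before enzyme addition from the post-addition reading gave activity in mP.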

human HIF-PHD3 = target: T2, human HIF-PHD3 (Homo sapiens, UniProt Q9H6Z9); test: HIF-PHD inhibition assay (fluorescence polarization), human HIF-PHD3; assay type: biochemical; details: 2-oxoglutaric acid 166 μmol/L
T2 construct: purchased CrystalGenomics Ltd
Outline: as §1

Hep3B cells = test: EPO production assay (ELISA of culture supernatant); assay type: cell-based; details: Homo sapiens, 3 μmol/L test compound, 48 hours, relative to control (0.1% DMSO), read-out: EPO production stimulation rate with 3 μmol/L test compound
Method: The stimulatory effect of the compound onEPO production was determined as follows using Hep3B cells.
Cells were seeded on 96 well plates at 40000 cells/well, and the plate was incubated overnight in MEM medium containing 10% fetal bovine serum (FBS) at 37° C. under 5% CO2. The next day, the medium was replaced with MEM containing 0.5% FBS, followed by addition of test compound. The test compound was dissolved in dimethyl sulfoxide and added to the cell so that the final concentration of dimethyl sulfoxide was 0.1%. After incubation for additional 48 hours, the culture supernatant was collected, and EPO contained in the supernatant was determined using ELISA kit (EPO ELISA Kit 11-693-417-001, Roche Co.). The results were expressed as stimulation rate of EPO production (fold), which was calculated as the relative value of the EPO production with 3 μmol/L of the test compound compared to the EPO production without stimulation (control).
Stimulation rate of EPO production (fold)=(EPO production with addition of test compound)/(EPO production of control)

T1 sequence (Q9GZT9 2-426 limits assumed): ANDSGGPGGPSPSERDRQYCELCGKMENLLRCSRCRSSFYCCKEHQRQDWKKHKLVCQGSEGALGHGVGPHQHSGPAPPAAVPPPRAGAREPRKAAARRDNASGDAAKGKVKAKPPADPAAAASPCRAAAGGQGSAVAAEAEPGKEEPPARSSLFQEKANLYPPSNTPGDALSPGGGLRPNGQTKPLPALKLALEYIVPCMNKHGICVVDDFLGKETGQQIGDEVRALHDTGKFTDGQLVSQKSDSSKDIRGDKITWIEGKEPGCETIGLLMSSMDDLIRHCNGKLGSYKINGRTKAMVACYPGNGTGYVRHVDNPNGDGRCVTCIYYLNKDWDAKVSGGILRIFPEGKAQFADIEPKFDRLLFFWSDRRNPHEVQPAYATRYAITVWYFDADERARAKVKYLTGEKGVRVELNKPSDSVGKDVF
T2 sequence (Q9H6Z9 whole entry): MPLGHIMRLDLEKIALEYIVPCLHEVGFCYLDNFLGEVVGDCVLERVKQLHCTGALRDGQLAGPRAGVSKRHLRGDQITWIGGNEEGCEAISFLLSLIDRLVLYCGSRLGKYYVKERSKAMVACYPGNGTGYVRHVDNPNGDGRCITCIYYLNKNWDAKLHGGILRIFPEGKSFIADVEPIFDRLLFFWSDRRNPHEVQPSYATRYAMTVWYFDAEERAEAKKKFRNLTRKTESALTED

| IC50 (human HIF-PHD2) | IC50 (human HIF-PHD3) | SMILES | fold induction at 3 µM (Hep3B cells) |
| --- | --- | --- | --- |
| 0.012 µM | 0.18 µM | O=C(O)c1cnn(-c2nc(O)c3c(cnn3Cc3ccc(-c4ccccc4C(F)(F)F)cc3)n2)c1 [Example 61] | 6 |
| 0.017 µM | 0.14 µM | O=C(O)c1cnn(-c2nc(O)c3c(cnn3Cc3ccc(-c4ccccc4Cl)cc3)n2)c1 [Example 62] | 12 |
| 0.014 µM | 0.11 µM | O=C(O)c1cnn(-c2nc(O)c3c(cnn3Cc3ccc(-c4cccc(F)c4)cc3)n2)c1 [Example 63] | 18 |
| 0.018 µM | 0.066 µM | Cc1cccc(-c2ccc(Cn3ncc4nc(-n5cc(C(=O)O)cn5)nc(O)c43)cc2)c1 [Example 64] | 23 |
| 0.011 µM | 0.18 µM | O=C(O)c1cnn(-c2nc(O)c3c(cnn3Cc3ccc(-c4cccc(C(F)(F)F)c4)cc3)n2)c1 [Example 65] | 20 |
| 0.017 µM | 0.11 µM | O=C(O)c1cnn(-c2nc(O)c3c(cnn3Cc3ccc(-c4ccc(F)cc4)cc3)n2)c1 [Example 66] | 33 |
| 0.01 µM | 0.19 µM | O=C(O)c1cnn(-c2nc(O)c3c(cnn3Cc3ccc(-c4ccc(C(F)(F)F)cc4)cc3)n2)c1 [Example 67] | 19 |
| 0.023 µM | 0.16 µM | Cc1cccc(C)c1-c1ccc(Cn2ncc3nc(-n4cc(C(=O)O)cn4)nc(O)c32)cc1 [Example 68] | 9.5 |
| 0.013 µM | 0.11 µM | COc1cccc(Cl)c1-c1ccc(Cn2ncc3nc(-n4cc(C(=O)O)cn4)nc(O)c32)cc1 [Example 69] | 7.8 |
| 0.011 µM | 0.11 µM | Cc1ccc(-c2ccc(Cn3ncc4nc(-n5cc(C(=O)O)cn5)nc(O)c43)cc2)c(C)c1 [Example 70] | 24 |
| 0.0091 µM | 0.12 µM | O=C(O)c1cnn(-c2nc(O)c3c(cnn3Cc3ccc(-c4cccc(F)c4F)cc3)n2)c1 [Example 76] | 6.9 |
| 0.0087 µM | 0.13 µM | O=C(O)c1cnn(-c2nc(O)c3c(cnn3Cc3ccc(-c4cc(F)ccc4F)cc3)n2)c1 [Example 77] | 9.8 |
| 0.0061 µM | 0.068 µM | O=C(O)c1cnn(-c2nc(O)c3c(cnn3Cc3ccc(-c4ccccc4)cc3F)n2)c1 [Example 78] | 30 |
| 0.016 µM | 0.2 µM | O=C(O)c1cnn(-c2nc(O)c3c(cnn3Cc3c(F)cc(-c4ccccc4)cc3F)n2)c1 [Example 79] | 14 |
| 0.0089 µM | 0.042 µM | O=C(O)c1cnn(-c2nc(O)c3c(cnn3Cc3ccc(-c4ccccc4F)cc3F)n2)c1 [Example 80] | 9.5 |
| 0.035 µM | 0.17 µM | O=C(O)c1cnn(-c2nc(O)c3c(cnn3Cc3ccc(-c4c(F)cccc4F)cc3F)n2)c1 [Example 81] | 5.4 |
| 0.033 µM | 0.24 µM | Cc1ccccc1-c1ccc(Cn2ncc3nc(-n4cc(C(=O)O)cn4)nc(O)c32)c(F)c1 [Example 83] | 6.2 |
| 0.013 µM | 0.2 µM | O=C(O)c1cnn(-c2nc(O)c3c(cnn3Cc3ccc(-c4ccccc4C(F)(F)F)cc3F)n2)c1 [Example 84] | 4.3 |
| 0.011 µM | 0.066 µM | COc1ccccc1-c1ccc(Cn2ncc3nc(-n4cc(C(=O)O)cn4)nc(O)c32)c(F)c1 [Example 85] | 4 |
| 0.021 µM | 0.33 µM | O=C(O)c1cnn(-c2nc(O)c3c(cnn3Cc3ccc(-c4ccccc4OC(F)(F)F)cc3F)n2)c1 [Example 86] | 2.5 |
| 0.05 µM | 0.26 µM | N#Cc1ccccc1-c1ccc(Cn2ncc3nc(-n4cc(C(=O)O)cn4)nc(O)c32)c(F)c1 [Example 87] | 5.3 |
